Structures can show the parent of a compound that is named as a salt.
Molecular target: T1, SMO (Mus musculus, UniProt P56726)
T1 construct: endogenous in cells; host or cells: C3H10T1/2 (ATCC #CCL-226)
Test: Smoothened (SMO)/Sonic Hedgehog (SHh) Transient Transcriptional Activation Assay (Gli-luciferase reporter in C3H10T1/2 cells)
Assay type: cell-based, murine
Details: 2 μM test compound, SHh 250 ng/ml, 20 hrs
Method in brief: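 C3H10T1/2 cells transiently transfected with a 10× murine Gli-responsive firefly luciferase reporter plus pEGFP, serum-starved 20 h in 0.5% calf serum, then treated with compounds (2 uM–2 nM final) and 250 ng/ml recombinant human SHh for 20 h at 37 °C. Read-out: Dual-Glo luminescence.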

T1 sequence (P56726 33-793): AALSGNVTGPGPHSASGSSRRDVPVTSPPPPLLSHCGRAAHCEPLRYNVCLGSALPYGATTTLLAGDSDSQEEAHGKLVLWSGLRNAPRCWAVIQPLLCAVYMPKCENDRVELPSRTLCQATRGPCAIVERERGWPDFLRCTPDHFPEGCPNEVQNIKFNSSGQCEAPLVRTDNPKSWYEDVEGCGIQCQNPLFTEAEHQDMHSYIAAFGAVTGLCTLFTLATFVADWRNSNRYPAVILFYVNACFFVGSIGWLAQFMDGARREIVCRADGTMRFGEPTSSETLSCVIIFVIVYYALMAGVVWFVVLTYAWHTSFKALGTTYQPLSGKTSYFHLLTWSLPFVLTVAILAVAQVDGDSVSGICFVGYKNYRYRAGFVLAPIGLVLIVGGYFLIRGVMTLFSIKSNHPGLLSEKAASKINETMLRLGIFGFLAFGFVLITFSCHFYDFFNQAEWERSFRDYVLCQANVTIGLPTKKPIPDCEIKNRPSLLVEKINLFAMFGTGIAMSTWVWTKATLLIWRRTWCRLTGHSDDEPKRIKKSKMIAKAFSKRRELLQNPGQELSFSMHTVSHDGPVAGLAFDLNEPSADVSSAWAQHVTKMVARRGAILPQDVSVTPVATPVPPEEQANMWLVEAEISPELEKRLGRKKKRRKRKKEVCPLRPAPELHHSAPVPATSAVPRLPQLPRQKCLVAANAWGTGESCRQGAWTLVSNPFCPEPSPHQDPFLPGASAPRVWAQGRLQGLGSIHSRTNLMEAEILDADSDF

SMO CELL % INHIBITION @ 2 μM	SMILES
100%	O=C(Cn1ccc2sccc2c1=O)NC1CCCC(c2nc3ccccc3[nH]2)C1 (stereo not drawn) [Example 128, N-[3-(1H-benzimidazol-2-yl)cyclohexyl]-2-(4-oxothieno[3,2-c]pyridin-5(4H)-yl)acetamide triflouroacetate]
110%	O=C(NC1CCCC(c2nc3ccccc3[nH]2)C1)c1ccc2cc[nH]c2c1 (stereo not drawn) [Example 141, N-[3-(1H-benzimidazol-2-yl)cyclohexyl]-1H-indole-6-carboxamide triflouroacetate]

Same assay, conditions: C3H 10T1/2, 2 μM test compound, SHh 250 ng/ml, 20 hrs, read-out: SMO CELL % INHIBITION @ 2 μM

SMILES	inhibition at 2 µM
CCCN1CCNC(=O)C1CC(=O)NC1CCCC(c2nc3ccccc3[nH]2)C1 (stereo not drawn) [Example 110, N-[3-(1H-benzimidazol-2-yl)cyclohexyl]-2-(3-oxo-1-propylpiperazin-2-yl)acetamide triflouroacetate]	86%
Cc1cccc(=O)n1CC(=O)NC1CCCC(c2nc3ccccc3[nH]2)C1 (stereo not drawn) [Example 111, N-[3-(1H-benzimidazol-2-yl)cyclohexyl]-2-(6-methyl-2-oxopyridin-1(2H)-yl)acetamide triflouroacetate]	103%
O=C(CN1CCCCCC1=O)NC1CCCC(c2nc3ccccc3[nH]2)C1 (stereo not drawn) [Example 112, N-[3-(1H-benzimidazol-2-yl)cyclohexyl]-2-(2-oxoazepan-1-yl)acetamide triflouroacetate]	93%
CN1C[C@H](O)CC1C(=O)NC1CCCC(c2nc3ccccc3[nH]2)C1 (stereo partly drawn) [Example 113, (4R)-N-[3-(1H-benzimidazol-2-yl)cyclohexyl]-4-hydroxy-1-methyl-L-prolinamide triflouroacetate]	93%
O=C(NC1CCCC(c2nc3ccccc3[nH]2)C1)c1cc(C2CC2)n[nH]1 (stereo not drawn) [Example 114]	109%
Cn1cc(CC(=O)NC2CCCC(c3nc4ccccc4[nH]3)C2)c2ccccc21 (stereo not drawn) [Example 115, N-[3-(1H-benzimidazol-2-yl)cyclohexyl]-2-(1-methyl-1H-indol-3-yl)acetamide triflouroacetate]	106%
Cc1cn2cc(CCC(=O)NC3CCCC(c4nc5ccccc5[nH]4)C3)nc2s1 (stereo not drawn) [Example 116, N-[3-(1H-benzimidazol-2-yl)cyclohexyl]-3-(2-methylimidazo[2,1-b][1,3]thiazol-6-yl)propanamide triflouroacetate]	91%
O=C(CNC(=O)c1ccccc1)NC1CCCC(c2nc3ccccc3[nH]2)C1 (stereo not drawn) [Example 117, N-(2-{[3-(1H-benzimidazol-2-yl)cyclohexyl]amino}-2-oxoethyl)benz-amide triflouroacetate]	102%
COc1ccc2cc(C(=O)NC3CCCC(c4nc5ccccc5[nH]4)C3)n(C)c2c1 (stereo not drawn) [Example 118, N-[3-(1H-benzimidazol-2-yl)cyclohexyl]-6-methoxy-1-methyl-1H-indole-2-carboxamide triflouroacetate]	83%
COc1cc(C(=O)NC2CCCC(c3nc4ccccc4[nH]3)C2)nc(OC)n1 (stereo not drawn) [Example 119, N-[3-(1H-benzimidazol-2-yl)cyclohexyl]-2,6-dimethoxypyr-imidine-4-carboxamide triflouroacetate]	75%
Cc1cc(C)n(CCC(=O)NC2CCCC(c3nc4ccccc4[nH]3)C2)n1 (stereo not drawn) [Example 120, N-[3-(1H-benzimidazol-2-yl)cyclohexyl]-3-(3,5-dimethyl-1H-pyrazol-1-yl)propanamide triflouroacetate]	70%
O=C(NC1CCCC(c2nc3ccccc3[nH]2)C1)C1CCCO1 (stereo not drawn) [Example 121, N-[3-(1H-benzimidazol-2-yl)cyclohexyl] tetrahydrofuran-2-carboxamide triflouroacetate]	94%
O=C(NC1CCCC(c2nc3ccccc3[nH]2)C1)c1cnn2c1CCCC2 (stereo not drawn) [Example 122, N-(3-(1H-benzo[d]imida-zol-2-yl)cyclohexyl)-4,5,6,7-tetrahydropyr-azolo[1,5-a]pyridine-3-carboxamide triflouroacetate]	92%
CC(=O)N[C@H](Cc1ccccc1)C(=O)NC1CCCC(c2nc3ccccc3[nH]2)C1 (stereo partly drawn) [Example 123, Nalpha-acetyl-N-[3-(1H-benzimidazol-2-yl)cyclohexyl]-D-phenylalanin-amide triflouroacetate]	83%
Cc1ccc(C(=O)NC2CCCC(c3nc4ccccc4[nH]3)C2)c(Cl)n1 (stereo not drawn) [Example 124, N-[3-(1H-benzimidazol-2-yl)cyclohexyl]-2-chloro-6-methylnico-tinamide triflouroacetate]	62%
O=C(C[C@H]1C[C@H]2C=C[C@@H]1C2)NC1CCCC(c2nc3ccccc3[nH]2)C1 (stereo partly drawn) [Example 125, N-[3-(1H-benzimidazol-2-yl)cyclohexyl]-2-[(1S,2S,4S)-bicyclo[2.2.1]hept-5-en-2-yl]acetamide triflouroacetate]	103%

Continued, values first:

inhibition at 2 µM	SMILES
83%	C[S+]([O-])c1ccc(C(=O)NC2CCCC(c3nc4ccccc4[nH]3)C2)cc1 (stereo not drawn) [Example 126, N-[3-(1H-benzimidazol-2-yl)cyclophexyl]-4-(methylsulfinyl) benzamide triflouroacetate]
100%	O=C(Cn1ccc2sccc2c1=O)NC1CCCC(c2nc3ccccc3[nH]2)C1 (stereo not drawn) [Example 127, N-[3-(1H-benzimidazol-2-yl)cyclohexyl]-2-(4-oxothieno[3,2-c]pyridin-5(4H)-yl)acetamide HCl]
95%	O=C(CCCC(=O)NC1CCCC(c2nc3ccccc3[nH]2)C1)Nc1ccccc1 (stereo not drawn) [Example 129, N-[3-(1H-benzimidazol-2-yl)cyclohexyl]-N′-phenylpentane diamide triflouroacetate]
84%	Cn1cc(CN2CCCC2)cc1C(=O)NC1CCCC(c2nc3ccccc3[nH]2)C1 (stereo not drawn) [Example 130, N-[3-(1H-benzimidazol-2-yl)cyclohexyl]-1-methyl-4-(pyrrolidin-1-ylmethyl)-1H-pyrrole-2-carboxamide triflouroacetate]
101%	O=C(Cc1ccc(Cl)s1)NC1CCCC(c2nc3ccccc3[nH]2)C1 (stereo not drawn) [Example 131, N-[3-(1H-benzimidazol-2-yl)cyclohexyl]-2-(5-chloro-2-thienyl)acetamide triflouroacetate]
78%	COc1ccc(C2(C(=O)NC3CCCC(c4nc5ccccc5[nH]4)C3)CC2)cc1 (stereo not drawn) [Example 132, N-[3-(1H-benzimidazol-2-yl)cyclohexyl]-1-(4-methoxyphenyl) cyclopropane-carboxamide triflouroacetate]
85%	COc1cccc2c1OCC(C(=O)NC1CCCC(c3nc4ccccc4[nH]3)C1)C2 (stereo not drawn) [Example 133, N-[3-(1H-benzimidazol-2-yl)cyclohexyl]-8-methoxychrom-ane-3-carboxamide triflouroacetate]
101%	O=C(NC1CCCC(c2nc3ccccc3[nH]2)C1)c1ccc(CN2CCOCC2)o1 (stereo not drawn) [Example 134, N-[3-(1H-benzimidazol-2-yl)cyclohexyl]-5-(morpholin-4-ylmethyl)-2-furamide triflouroacetate]
100%	O=C(NC1CCCC(c2nc3ccccc3[nH]2)C1)c1cc(-c2ccncc2)n[nH]1 (stereo not drawn) [Example 135, N-[3-(1H-benzimidazol-2-yl)cyclohexyl]-3-pyridin-4-yl-1H-pyrazole-5-carboxamide triflouroacetate]
86%	Cc1n[nH]c(C)c1/C=C/C(=O)NC1CCCC(c2nc3ccccc3[nH]2)C1 (stereo not drawn) [Example 136, (2E)-N-[3-(1H-benzimidazol-2-yl)cyclohexyl]-3-(3,5-dimethyl-1H-pyrazol-4-yl)acrylamide triflouroacetate]
108%	O=C1CCc2cc(C(=O)NC3CCCC(c4nc5ccccc5[nH]4)C3)ccc2N1 (stereo not drawn) [Example 137, N-[3-(1H-benzimidazol-2-yl)cyclohexyl]-2-oxo-1,2,3,4-tetrahydroquino-line-6-carboxamide triflouroacetate]
100%	O=C(CN1C[C@@H]2CC[C@H]1C2)NC1CCCC(c2nc3ccccc3[nH]2)C1 (stereo partly drawn) [Example 138, 2-[(1S,4R)-2-azabicyclo[2.2.1]hept-2-yl]-N-[3-(1H-benzimidazol-2-yl)cyclohexyl]-acetamide triflouroacetate]
105%	COc1cc(C(=O)NC2CCCC(c3nc4ccccc4[nH]3)C2)cc2c1OCCO2 (stereo not drawn) [Example 139, N-[3-(1H-benzimidazol-2-yl)cyclohexyl]-8-methoxy-2,3-dihydro-1,4-benzodioxine-6-carboxamide triflouroacetate]
110%	O=C(NC1CCCC(c2nc3ccccc3[nH]2)C1)c1ccc2cc[nH]c2c1 (stereo not drawn) [Example 140, N-[3-(1H-benzimidazol-2-yl)cyclohexyl]-1H-indole-6-carboxamide HCl]
69%	CC(C(=O)NC1CCCC(c2nc3ccccc3[nH]2)C1)n1cccn1 (stereo not drawn) [Example 142, N-[3-(1H-benzimidazol-2-yl)cyclohexyl]-2-(1H-pyrazol-1-yl)propanamide triflouroacetate]
87%	Cn1c(=O)[nH]c2cc(C(=O)NC3CCCC(c4nc5ccccc5[nH]4)C3)ccc21 (stereo not drawn) [Example 143, N-[3-(1H-benzimidazol-2-yl)cyclohexyl]-1-methyl-2-oxo-2,3-dihydro-1H-benzimidazole-5-carboxamide triflouroacetate]
105%	O=C(Cc1nc2cc(Cl)ccc2[nH]1)NC1CCCC(c2nc3ccccc3[nH]2)C1 (stereo not drawn) [Example 144, N-[3-(1H-benzimidazol-2-yl)cyclohexyl]-2-(5-chloro-1H-benzimidazol-2-yl)acetamide HCl]
61%	CCn1nc(C(C)C)cc1C(=O)NC1CCCC(c2nc3ccccc3[nH]2)C1 (stereo not drawn) [Example 146, N-[3-(1H-benzimidazol-2-yl)cyclohexyl]-1-ethyl-3-isopropyl-1H-pyrazole-5-carboxamide triflouroacetate]
